Measurements from patent US7026348B2, “Indole sPLA2 inhibitors” (Eli Lilly and Company, priority 1998, dated 2006).
Where a name gives a salt, the structure may show the parent alone.

Molecular target: T1, recombinant human secreted phospholipase A2 (Homo sapiens, UniProt P14555)
T1 sequence (P14555 21-144): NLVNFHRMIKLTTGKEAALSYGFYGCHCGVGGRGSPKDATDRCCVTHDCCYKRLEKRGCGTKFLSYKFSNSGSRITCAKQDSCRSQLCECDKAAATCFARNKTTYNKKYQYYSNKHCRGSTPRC
Test: chromogenic assay of recombinant human secreted phospholipase A2 inhibition
Format: biochemical
Settings: diheptanoyl thio-PC substrate, pH 7.5, 40° C. for 30 minutes, absorbance at 405 nanometers, triplicate; read-out: Inhibition of human secreted PLA2 IC50 ± mean deviation
Description: The following chromogenic assay procedure was used to identify and evaluate inhibitors of recombinant human secreted phospholipase A2. The assay described herein has been adapted for high volume screening using 96 well microtiter plates. A general description of this assay method is found in the article, “Analysis of Human Synovial Fluid Phospholipase A2 on Short Chain Phosphatidylcholine-Mixed Micelles: Development of a Spectrophotometric Assay Suitable for a Microtiterplate Reader”, by Laure J. Reynolds, Lori L. Hughes, and Edward A Dennis, Analytical Biochemistry, 204, pp. 190-197, 1992 (the disclosure of which is incorporated herein by reference):
REACTION BUFFER— • CaCl2.2H2O (1.47 g/L) • KCl (7.455 g/L) • Bovine Serum Albumin (fatty acid free)(1 g/L) • (Sigma A-7030, product of Sigma Chemical Co., St. Louis Mo., USA) • TRIS HCl (3.94 g/L) • pH 7.5 (adjust with NaOH)
ENZYME BUFFER— • 0.05 NaOAc.3H2O, pH 4.5 • 0.2 NaCl • Adjust pH to 4.5 with acetic acid
DTNB—5,5′-dithiobis-2-nitrobenzoic acid
RACEMIC DIHEPTANOYL THIO—PC
racemic 1,2-bis(heptanoylthio)-1,2-dideoxy-sn-glycero-3-phosphorylcholine
TRITON X-100™ prepare at 6.249 mg/ml in reaction buffer to equal […].
A measured volume of racemic dipheptanoyl thio PC supplied in chloroform at a concentration of 100 mg/ml is taken to dryness and redissolved in 10 millimolar
TRITON X-100™ nonionic detergent aqueous solution. Reaction Buffer is added to the solution, then DTNB to give the Reaction Mixture.
The reaction mixture thus obtained contains 1 mM diheptanoly thio-PC substrate, 0.29 mm Triton X-100™ detergent, and 0.12 mm DTMB in a buffered aqueous solution at pH 7.5.
• 1. Add 0.2 ml reaction mixture to all wells; • 2. Add 10 ul test compound (or solvent blank) to appropriate wells, mix 20 seconds; • 3. Add 50 nanograms of sPLA2 (10 microliters) to appropriate wells; • 4. Incubate plate at 40° C. for 30 minutes; • 5. Read absorbance of wells at 405 nanometers with an automatic plate reader.
All compounds were tested in triplicate. Typically, compounds were tested at a final concentration of 5 ug/ml. […] Lack of color development at 405 nanometers evidenced inhibition. Compounds initially found to be active were reassayed to confirm their activity and, if sufficiently active, IC50 values were determined. […] In all cases, % inhibition measured at 405 nanometers generated by enzyme reactions containing inhibitors relative to the uninhibited control reactions was determined. Each sample was titrated in triplicate and result values were averaged for plotting and calculation of IC50 values. IC50 were determined by plotting log concentration versus inhibition values in the range from 10-90% inhibition.

IC50 [nM]	SMILES
17	CCc1c(C(=O)C(N)=O)c2c(OCC(=O)NS(=O)(=O)C(F)(F)F)cccc2n1Cc1ccccc1 [Example 3, 1-benzyl-2-ethyl-4-trifluoromethanesulfonamidoylmethyloxy-indole-3-glyoxylamide]
9	CCc1c(C(=O)C(N)=O)c2c(OCC(=O)NS(=O)(=O)c3ccccc3C)cccc2n1Cc1ccccc1 [Example 4, 1-benzyl-2-ethyl-4-(2-methylbenzenesulfonamidoylmethyloxy)-indole-3-glyoxylamide]
12	CCc1c(C(=O)C(N)=O)c2c(OCC(=O)NS(C)(=O)=O)cccc2n1Cc1ccccc1 [Example 1, 1-benzyl-2-ethyl-4-methanesulfonamidoylmethyloxy-indole-3-glyoxylamide]

SMILES	IC50 [nM]
CCc1c(C(=O)C(N)=O)c2c(OCC(=O)NS(=O)(=O)c3ccccc3)cccc2n1Cc1ccccc1 [Example 2, 1-benzyl-2-ethyl-4-benzenesulfonamidoylmethyloxy-indole-3-glyoxylamide]	7
CCc1c(C(=O)C(N)=O)c2c(OCC(=O)NS(=O)(=O)c3ccc(CCN)cc3)cccc2n1Cc1ccccc1 [Example 5, 1-benzyl-2-ethyl-4-(4-(2-aminoethyl)benzenesulfonamidoylmethyloxy)-indole-3-glyoxylamide, Hydrochloride Salt]	16
